In US9408845B2, “Formulations containing pyridazine compounds” (Northwestern University, priority 2006, dated 2016):
Entries after “also recorded” stand apart in the source; their conditions may differ. Where two headings read alike, the source gives them in different places.

How the values were obtained:
liver histology, mice = assay: Chronic, therapeutic dose liver toxicity assay
From the text: (§1) Mice will be anesthetized and sacrificed as described above. Livers will be removed, fixed in 4% (v/v) paraformaldehyde and paraffin-embedded for histology. To assess histological toxicity, 4 μm liver sections will be stained with haematoxylin and eosin. Two independent observers blinded to the treatment groups will perform microscopic assessment of the tissue for injury.
After two weeks of treatment, mice are sacrificed and liver toxicity analyzed as described above. For each chronic toxicity assay, 5 mg of compound is required.
as §1, with “were” for “will be”, “killed” for “sacrificed”, “paraformaldehyde,” for “paraformaldehyde”, “pan” for “μm”, “hematoxylin” for “haematoxylin”, “performed” for “will perform”

[1] = system: nitric oxide (NO) production in BV-2 microglial cells; assay: LPS-stimulated accumulation of nitrite (NO metabolite) in BV-2 cells, Griess assay; format: cell-based, mouse; conditions: Mus musculus, read-out: NO, concentration required for 50% inhibition
[2] = system: QT interval in Lead II electrocardiogram, anesthetized guinea pigs; assay: Cardiac QT interval prolongation assay in anesthetized guinea pigs; conditions: 15 mg/kg PO
Method: The QT interval studies are performed by evaluating compounds for effects on QT interval in Lead II electrocardiograms measured in anesthetized guinea pigs (Hirohashi et al., 1991, Arzneim.-Forsch./Drug Res 41:9-18), one of the species recommended in the FDA white paper. Vehicle or compound is administered orally at 15 mg/kg (dosing volume of 10 ml/kg) to groups of male guinea pigs (weighing 330-350 g), with 5 animals per group. […] Heart rate, arterial blood pressure, and QT intervals are measured at baseline, and at 15, 30, 45, and 60 min after compound administration. Sotalol administered iv at 0.3 mg/kg serves as the positive control compound. The QT intervals are corrected for changes in heart rate using both Bazetes and Fridericia's formulae. Any increase in QT interval values over baseline values exceeding the upper 95% confidence limit of the mean changes at the corresponding time point in the vehicle-treated control group for two consecutive observation times indicates significant QT interval prolongation in the individually treated animals.
The QT intervals (QTc) were corrected for changes in heart rate using both Bazett's and Fridericia's formulae.
The test substance was dissolved in 2% Tween 80 and administered by oral administration. The substance was treated at 15 mg/kg with a dosing volume of 10 ml/kg. Duncan Hartley derived guinea pigs provided by MDS Pharma Services—Taiwan Ltd were used. Sotalol was obtained from Sigma, USA.
Groups of guinea pigs (weighing 330-350 g) with 5 animals each were employed. The animals were anesthetized with urethane (1500 mg/kg, IV bolus injection in a volume of 5 ml/kg) and breathed spontaneously. Lead II ECG was obtained with subdermal needle electrodes and ECG signal conditioner. Heart rate was measured with a pulse rate tachometer. The carotid artery was cannulated with a catheter that was connected to a pressure transducer and a pressure processor for measurements of arterial blood pressure (BP). […] QTC intervals were obtained by correction for heart rate changes using Bazett's and Fridericia's formulae. Increase in QTc interval in individual treated guinea pigs that lies outside the upper limit of 95% confidence limits (mean±SD) of the changes for the vehicle-treated control at corresponding time points for two consecutive times is considered significant.

[3] = system: human Aβ infusion mouse model; assay: Human Aβ infusion mouse model, Y maze behavioral assay; format: in vivo; conditions: 1.25, 2.5, 5, and 10 mg/kg
From the text: (§2) Once per day treatment will begin at day 21 after start of Aβ ICV infusion and continue for 14 days. Beginning at day 50 after start of Aβ ICV infusion, the Y maze test of spontaneous alternation will be used to evaluate hippocampus dependent spatial learning as described previously (Craf et al., J Mol. Neurosci. 24:115-122, 2004a). Briefly, each mouse will be placed in the “start” arm and then released to choose one of the two other arms. The mouse will be blocked from exiting the chosen arm for 30 s then they will be placed back in the start arm and released again to choose one of the two other arms. If the second choice is different from the first one, the mouse will be scored as alternating. Mice will be tested for 10 days with one trial per day, and a mean percent alternation will be calculated for each mouse. […] The brain will be removed and longitudinally bisected as described previously (Craft et al., Neurobiolo Aging 25:12834292, 2004b). […] The hippocampus will be dissected from the left half of the brain and snap-frozen for subsequent biochemical evaluation.

[4] = system: human Aβ infusion mouse model; assay: Human Aβ infusion mouse model, hippocampal neuroinflammation and synaptic biochemical endpoints; format: in vivo; conditions: hippocampus, Aβ-infused mice, oral compound
Method: The study design and treatment paradigm for intracerebroventricular (ICV) infusion of human oligomerie Aβ1-42 into the mouse will be as described previously (Craft et al., Neurobiol Aging 25:1283-1292, 2004b), except that compound administration will be by mouth. Female C57Bl/6 mice (Harlan) weighing 20-25 g (3-4 months old) will be housed in a pathogen free facility under an approximate 12 h/12 h dark and light cycle and they will have access ad libitum to food and water.
as §2
S100B levels in hippocampal supernatants will be measured by a empium-based ELISA essentially as previously described (Van Eldik and Griffin, Biochem Biophys Acta 1223:398-403, 1994). Synaptophysin levels in hippocampal supernatants will be quantified by ELISA following the procedure described previously (Craft at al, 20041, supra). PSD-95 levels will be determined by Western blots using anti-PSD-95 antibodies (1:100,000 dilution; Upstate Biotechnology) as described (Craft et al., 2004b).
It was previously shown that Aβ-induced neuroinflammation is an early event associated with the onset and progression of pathophysiology, and can be suppressed by an inhibitor of glial activation. Female C57Bl/6 mice (Harlan) weighing […] (3-4 months old) were housed in a pathogen free facility under an approximate 12 h/12 h dark and light cycle and had access ad libitum to food and water. All animal procedures were approved by the Northwestern Animal Care and Use Committee.

[5] = system: LPS-induced IL-1β production in BV-2 microglia cells; assay: LPS-induced IL-1β production in BV-2 microglial cells; conditions: Mus musculus, BV-2, 16 h, read-out: IL-1β, concentration required for 50% inhibition
[6] = mouse, in vivo
[7] = Caccia et al., 1985; cited from earlier work

Structure (SMILES) | liver toxicity score versus control mice (liver histology, mice; mouse, in vivo, po, […]) | prevention of Y-maze behavioral deficit [3] | loss of PSD-95 [4] | loss of synaptophysin [4] | up-regulation of IL-1β [4] | up-regulation of S100B [4] | other results
Cc1cc(-c2ccccc2)nnc1N1CCN(c2ncccn2)CC1 [MW01-2-151SRM, 4-methyl-6-phenyl-3-(4-pyrimidin-2-ylpiperazin-1-yl)pyridazine] | no significant differences | significantly effective | prevented | prevented | blocked | blocked | IC50 ([1]; LPS-stimulated BV-2 cells, 16 hrs): > 25 µM; effect on heart rate [2]: no significant effects; effect on mean blood pressure [2]: no significant effects; QTc / QT interval prolongation ([2]; 60 min post-dosing, 5 guinea pigs): did not cause any significant prolongation; also recorded: Neither compound increased; IC50 [5]: 8.3 ± 5.8 µM
c1ccc(-c2cc(-c3ccccc3)c(N3CCN(c4ncccn4)CC3)nn2)cc1 [MW01-5-188WH, 4,6-diphenyl-3-(4-pyrimidin-2-ylpiperazin-1-yl)pyridazine] | no significant differences |  |  |  |  |  | IC50 ([1]; BV-2, 16 h): > 25 µM; oral bioavailability properties [6]: good oral bioavailability; time of decline to basal levels / bulk clearance, plasma/blood ([6]; po): ≤ 120 min
c1ccc(-c2cc(-c3ccncc3)c(N3CCN(c4ncccn4)CC3)nn2)cc1 [MW01-6-189WH, 4-pyridyl-6-phenyl-3-(4-pyrimidin-2-ylpiperazin-1-yl)pyridazine] |  | significantly effective | prevented | trend toward preventing | blocked | blocked | liver toxicity score versus control mice (liver histology, mice; C57Bl/6 mice, […] oral, 2 weeks, scale 0 (best) to 9 (worst)): no significant differences
Cc1cc(-c2ccccc2)nnc1NCCN1CCOCC1 [minaprinc, minaprine] |  |  |  |  |  |  | brain/blood ratio [7]: about 2
